Reference: patent US10125184B2, “Apolipoprotein E polypeptides and their use” (priority 2011, dated 2018)
Ends that are not written are not given here. Peptide text beside a SMILES is read from it.

What was measured:
JFH-1 HCVcc-Luc = settings: for IC50: HCVcc infection of Huh7.5.1 cells
Experimental: FIGS. 1A-1C. […] (A) Schematic illustration of apoE protein domains and the amino acid sequences of hEP and mEP peptides. The amino acid sequences shown are hEP-1 (SEQ ID NO: 6) and mEP (SEQ ID NO: 20). […] Huh7.5.1 cells were infected with JFH-1 HCVcc-Luc (MOI˜0.5) in the presence of hEP or mEP for 2 hours. After removal of virus and peptides, cells were further incubated for 48 hours prior to luciferase assay. Data are presented as % inhibition relative to control infections in which cells were treated with DMSO (0%). Results are expressed as mean±standard deviation (s.d.) (n=3). (C). Huh7.5.1 cells were treated with hEP or DMSO at indicated doses for 48 hours. The effect of hEP on cell viability was measured by a CellTiter Glo assay kit.
FIGS. 7A-7E. Mapping the anti-viral activity of hEP. In (A) and (B), HCVcc-luc was first mixed with indicated peptides (20 μg/ml, 2.7 μM) and then incubated with Huh7.5.1 cells for two hours at 37° C. to initiate infection. After additional 48 hours incubation, luciferase activity was measured. Results are presented as fold of inhibition relative to infections containing DMSO (n=5, mean±sd). (C) 20 μg of hEP-2 or hEP-2/ΔCys were resuspended in PBS and kept at room temperature for 30 minutes. Peptides were then mixed with 2×SDS-sample buffer without DTT and boiled for 5 minutes. Alternatively, samples were simply left unboiled or mixed with sample buffer containing DTT (2 mM). Peptide samples were then subjected to electrophoresis on a 16% tricine non-reducing gel (Invitrogen). […] (D) and (E) Mass spectrometric analysis of hEP-2 or hEP-2/ΔCys.
Detailed procedures involving the production and use of HCVpp and HCVcc have been published elsewhere (Liu et al., J Virol 2009; 83:2011-2014; Yang et al., Hepatology 2008; 48:1396-1403; Yang et al., J Biol Chem 2008; 283:8643-8653). Production procedure of HCVcc expressing firefly luciferase that was inserted between NS5A and NS5B (JFH-1 strain) was described elsewhere (Liu et al., Virology 2010; 407:160-170). Unless otherwise indicated, viruses were typically added to cells for two hours before removal. Cells were incubated for additional 48 hours followed by luciferase assay. When purification was needed, HCVcc were subjected to ultracentrifugation (SW41, 28,000×g) for 4 hours through a 20% sucrose cushion. Deidentified human sera, collected from five patients containing high-titer HCV (HCVser), were obtained.

[1] = DMPC binding assay (turbidity OD490nm); settings: reduction (percentage) of turbidity (OD490nm) of DMPC solution, plateau 10 minutes after addition of peptide
Experimental: FIGS. 3A-3C. Both hEP and mEP mediate plasma cholesterol clearance through hepatic lipoprotein receptors. (A) DMPC binding assay was conducted as described in the examples section. The turbidity of DMPC vesicle solution was monitored by OD490 nm. The curves were representative of two independent experiments. (B) HEK293T cells were loaded with DiI-LDL (5 μg/ml) along with apoE peptide-DMPC particles which competed with DiI-LDL for LDLR binding and LDLR-mediated endocytosis (for 30 min) n=3 for each group. (C) Each peptide (100 μg in 100 μl PBS) was retro-orbitally injected into 6-month-old apoE−/− mice (two mice each group). PBS (100 μl) was injected into two other mice as control. Before (set as 0 min time point) and 5 min, 30 min, 1 h, 2 h, and 4 h after the peptide or PBS injection, 30 μl blood samples were drawn for plasma cholesterol measurement using total Cholesterol Reagent Kit (Raichem, San Diego, Calif.).
1,2-dimyristoyl-sn-glycero-3-phosphatidylcholine (DMPC) (Avanti Polar Lipids Inc., Alabaster, Ala.) was dissolved in chloroform: methanol (3:1, v/v). It was dried thoroughly under a stream of N2. The dried lipid sample was dispersed in pre-warmed buffer (10 mM Tris-HCl, pH7.2; 150 mM NaCl; 0.5 mM EDTA) to final lipid concentration of 10 mg/ml, vortexed for 1 min, and sonicated 10 times at lowest power for 10 seconds at 24° C. The peptide solution, lipid solution and buffer were all maintained at 23.9° C. One milliliter buffer and 250 μg (25 μl lipid solution) were added in a quartz cuvette, and let equilibrate for 10 min, resulting in a turbid DMPC vesicle solution. Peptide solution (250 μg in 100 μl) was then added to turbid solution in the cuvette, the solution was mixed immediately, and the change of turbidity was monitored by OD at 490 nm as a function of time. If the peptide binds to DMPC vesicles, the large DMPC vesicles will be transformed into smaller DMPC-peptide particles, reducing the turbidity of the solution.

HCVcc-luc = test: Attachment versus post-attachment inhibition assay; format: cell-based, Hepatitis C virus; settings: heparin 200 μg/ml, anti-CD81 5 μg/ml, hEP 20 μg/ml, bafilomycin A1 10 nM
Experimental: FIGS. 5A-5D. hEP inhibits HCV entry at the attachment step. (A) HCVcc-luc was first mixed with either scrambled peptide or hEP-2 (20 μg/ml) for one hour at room temperature. In Group 1, mixed virus was directly added to Huh7.5.1 cells, whereas in Group 2, virus was purified through ultracentrifuge at 28,000×g for 4 hours in order to remove peptide, and then used to infect Huh7.5.1 cells. **p<0.005. (B) The kinetics of hEP- and bafilomycin A1-mediated inhibition were determined by time-of-addition assays, as described in the examples section. Fitted lines represent sigmoidal time-dependent curves (mean of n=3; error bars, s.d.). (C) HCVcc-Luc was added to Huh7.5.1 cells at 4° C. and incubated for 1.5 hrs. Unbound virus was removed by 2 washes with cold media, fresh media was added, and the cells were shifted to 37° C. to allow synchronous infection to proceed. Heparin (200 μg/ml), anti-CD81 monoclonal antibody (5 μg/ml), hEP (20 μg/ml), or bafilomycin A1 (10 nM) were present in the media either continuously, during the 4° C. incubation only (attachment), or during the 37° C. incubation phase only (post-attachment). % Inhibition was calculated as 100-percent infection relative to control infections containing DMSO or an isotype antibody control containing 0.01% sodium azide (for anti-CD81 only) (mean of n=3; error bars, s.d.). (D) The effects of hEP (2.7 μM) or scrambled peptide on HCV binding were determined as described in the examples section. Results were calculated as relative RNA copies with numbers obtained from the scrambled peptide treated wells set to 100 (mean of n=3; error bars, s.d.). **p<0.005.
To investigate the mechanistic action of hEP, three sets of experiments were conducted. First, hEP-2 (SEQ ID NO: 9) or scrambled peptide-treated HCVcc were purified through ultracentrifugation to remove the peptide and then used to infect naïve Huh7.5.1 cells. […] Second, to determine the kinetics of inhibition, a time-of-addition experiment was conducted. HCV remained sensitive to bafilomycin A1, a fusion inhibitor that prevents endosome acidification, until 3 hours after the 37° C. temperature shift (FIG. 5B), which is consistent with previous reports (Koutsoudakis et al., J Virol 2006; 80:5308-5320). […] In order to determine whether hEP-2 (SEQ ID NO: 9) blocks infection at the initial attachment step or a downstream event in the HCV entry process, hEP-2 (SEQ ID NO: 9) was either added together with HCVcc to cells during the 4° C. attachment step only, and then removed prior to shifting the temperature to 37° C., or added only after the temperature shift. As a positive control, hEP-1 was present during the entire course of the experiment. […] Finally, the direct binding of virions to cell surface was measured using a real-time PCR based assay.

Compound	solubility (physchem) [µg/mL]	IC50 (JFH-1 HCVcc-Luc) [µM]	other results
CEEQAQQIRLQAEAFQARLKSWFEPLVEDM [hEP-3]	< 220		Inhibition of HCVcc infection/entry (in words) (JFH-1 HCVcc-Luc; Huh7.5.1 cells): dramatically reduced ability to inhibit HCVcc entry; DMPC binding [1]: + (+, reduction 25-50%)
EELRVRLASHLRKLRKRLLRDADDLQKRLAVY [hEP-2/ΔCys]	> 220	> 10	
LRVRLASHLRKLRKRLLRDADDLQKRLAVY [hEP-7]		> 10	
CC(C)C[C@H](NC(=O)[C@H](CC(=O)O)NC(=O)[C@H](CC(=O)O)NC(=O)[C@H](C)NC(=O)[C@H](CC(=O)O)NC(=O)[C@H](CCCNC(=N)N)NC(=O)[C@H](CC(C)C)NC(=O)[C@H](CC(C)C)NC(=O)[C@H](CCCNC(=N)N)NC(=O)[C@H](CCCCN)NC(=O)[C@H](CCCNC(=N)N)NC(=O)[C@H](CC(C)C)NC(=O)[C@H](CCCCN)NC(=O)[C@H](CCCNC(=N)N)NC(=O)[C@H](CC(C)C)NC(=O)[C@H](Cc1c[nH]cn1)NC(=O)[C@H](CO)NC(=O)[C@H](C)NC(=O)[C@H](CC(C)C)NC(=O)[C@H](CCCNC(=N)N)NC(=O)[C@@H](NC(=O)[C@H](CCCNC(=N)N)NC(=O)[C@H](CC(C)C)NC(=O)[C@@H](N)CS)C(C)C)C(=O)O [hEP-11]	< 220	4	
heparin [reference compound]			Inhibition when present during the 4° C. attachment step only (HCVcc-luc): predominant
CC(C)C[C@H](NC(=O)[C@H](CC(C)C)NC(=O)[C@H](CCCNC(=N)N)NC(=O)[C@H](CCCCN)NC(=O)[C@H](CCCNC(=N)N)NC(=O)[C@H](CC(C)C)NC(=O)[C@H](CCCCN)NC(=O)[C@H](CCCNC(=N)N)NC(=O)[C@H](CC(C)C)NC(=O)[C@@H](N)CS)C(=O)N[C@@H](CCCNC(=N)N)C(=O)N[C@@H](CS)C(=O)O [hEP-12, CLRKLRKRLLRC] (H-CLRKLRKRLLRC-OH; N-terminus and C-terminus assumed)	< 220	> 10	
CC[C@H](C)[C@H](NC(=O)[C@@H](N)CS)C(=O)N[C@@H](CCCNC(=N)N)C(=O)N[C@@H](CC(C)C)C(=O)N[C@@H](CCC(N)=O)C(=O)N[C@@H](C)C(=O)N[C@@H](CCC(=O)O)C(=O)N[C@@H](C)C(=O)N[C@@H](Cc1ccccc1)C(=O)N[C@@H](CCC(N)=O)C(=O)N[C@@H](C)C(=O)N[C@@H](CCCNC(=N)N)C(=O)N[C@@H](CC(C)C)C(=O)N[C@@H](CCCCN)C(=O)N[C@@H](CO)C(=O)N[C@@H](Cc1c[nH]c2ccccc12)C(=O)N[C@@H](Cc1ccccc1)C(=O)N[C@@H](CCC(=O)O)C(=O)N1CCC[C@H]1C(=O)N[C@@H](CC(C)C)C(=O)N[C@H](C(=O)O)C(C)C [hEP-5]		> 10	
CVRLASHLRKLRKRLLRDADDLQKRLAVY [hEP-10]	> 220	0.8	
CC(C)C[C@H](NC(=O)[C@H](CC(=O)O)NC(=O)[C@H](CC(=O)O)NC(=O)[C@H](C)NC(=O)[C@H](CC(=O)O)NC(=O)[C@H](CCCNC(=N)N)NC(=O)[C@H](CC(C)C)NC(=O)[C@H](CC(C)C)NC(=O)[C@H](CCCNC(=N)N)NC(=O)[C@H](CCCCN)NC(=O)[C@H](CCCNC(=N)N)NC(=O)[C@H](CC(C)C)NC(=O)[C@H](CCCCN)NC(=O)[C@H](CCCNC(=N)N)NC(=O)[C@H](CC(C)C)NC(=O)[C@H](Cc1c[nH]cn1)NC(=O)[C@H](CO)NC(=O)[C@H](C)NC(=O)[C@H](CC(C)C)NC(=O)[C@H](CCCNC(=N)N)NC(=O)[C@@H](NC(=O)[C@H](CCCNC(=N)N)NC(=O)[C@H](CC(C)C)NC(=O)[C@H](CCC(=O)O)NC(=O)[C@@H](N)CCC(=O)O)C(C)C)C(=O)O [hEP-8]		> 10	
VRLASHLRKLRKRLLRDADDLQKRLAVY [hEP-9]		> 10	
VRLASHLRKLRKRLLRDADDLIRLQAEAFQARLKSWFEPLV [hEP-6]		> 10	
CEELRVRLASHLRKLRKRLLRDADDLQKRLAVY [hEP-2]	> 220	0.5	
CVDRYEARLRARALKDRQKRLLKELSLLVRHLD [Scrambled, reference compound]	> 220	> 10	
CVRLASHLRKLRKRLLRDADDL [hEP-4]	< 220	> 10	
CEEIRARLSTHLRKMRKRLMRDADDLQKRLAVY [mEP-2]	> 220	> 10	
